# Assay results as given in paper PMC7175138, “Synthesis and Bioactivity of Thiazolethioacetamides as Potential Metallo-β-Lactamase Inhibitors” (Antibiotics, 2020).
# Target: ImiS (Aeromonas veronii, UniProt O31272)
# Experiment: Enzyme inhibition assay, MβL ImiS, cefazolin as substrate
# Format: biochemical
# Details: 25 °C, 30 min premix
# Procedure: (§1) To test the inhibitory activity of compounds 1–12 against MβLs, three representative MβLs, VIM-2 (B1), ImiS (B2), and L1 (B3), were chosen for evaluation.
# (§2) The enzyme inhibition activity assay was carried out on an Agilent-8453 UV-visible spectrometer. […] Cefazolin (Sigma-Aldrich, Burlington, MO, USA), with a concentration of 20 to 140 μM, was taken as the substrate. The enzyme and inhibitor were premixed with the corresponding MβL and the thiazolethioacetamides for 30 min. The IC50 values were measured at 25 °C with the inhibitor concentrations of 0 and 1000 μM, and analyzed through IC50 calculation tool (AAT Bioquest Inc., sunnyvale, CA, USA).
# Sequence of ImiS (O31272 entry or part of it): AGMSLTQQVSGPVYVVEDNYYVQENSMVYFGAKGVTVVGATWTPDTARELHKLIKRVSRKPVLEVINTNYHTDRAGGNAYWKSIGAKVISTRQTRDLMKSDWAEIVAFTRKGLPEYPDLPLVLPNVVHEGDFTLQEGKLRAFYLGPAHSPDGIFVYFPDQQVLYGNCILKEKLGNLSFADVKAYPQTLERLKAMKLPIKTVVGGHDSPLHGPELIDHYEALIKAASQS
row,SMILES,IC50
1,O=C(CSc1nnc(-c2ccccc2O)s1)Nc1ccc(Cl)cc1 [Compound 1],580 nM
2,O=C(CSc1nnc(-c2ccccc2O)s1)Nc1cccc(Cl)c1 [Compound 2],530 nM
3,O=C(CSc1nnc(-c2ccccc2O)s1)Nc1ccc(Cl)c(Cl)c1 [Compound 3],690 nM
4,O=C(CSc1nnc(-c2ccccc2O)s1)Nc1ccc(Cl)cc1Cl [Compound 4],580 nM
5,O=C(CSc1nnc(-c2ccccc2O)s1)Nc1ccc(Cl)cc1[N+](=O)[O-] [Compound 5],170 nM
6,O=C(CSc1nnc(-c2ccccc2O)s1)Nc1cc(Cl)ccc1[N+](=O)[O-] [Compound 6],360 nM
7,O=C(CSc1nnc(-c2ccccc2O)s1)Nc1ccc([N+](=O)[O-])cc1Cl [Compound 7],420 nM
8,O=C(CSc1nnc(-c2ccccc2O)s1)Nc1ccc(OC(F)(F)F)cc1 [Compound 8],310 nM
9,O=C(CSc1nnc(-c2ccccc2O)s1)Nc1ccc(F)cc1 [Compound 9],460 nM
10,O=C(CSc1nnc(-c2ccccc2O)s1)Nc1cccc(F)c1 [Compound 10],610 nM
11,O=C(CSc1nnc(-c2ccccc2O)s1)Nc1ccccc1F [Compound 11],680 nM
12,O=C(CSc1nnc(-c2ccccc2O)s1)Nc1c(F)cccc1F [Compound 12],700 nM

# Target: VIM-2 (Escherichia coli, UniProt Q5U7L7)
# Experiment: Enzyme inhibition assay, MβL VIM-2, cefazolin as substrate
# Format: biochemical
# Details: 25 °C, 30 min premix
# Procedure: as §1, §2
row,SMILES,IC50
1,O=C(CSc1nnc(-c2ccccc2O)s1)Nc1ccc(OC(F)(F)F)cc1 [Compound 8],2200 nM
2,O=C(CSc1nnc(-c2ccccc2O)s1)Nc1c(F)cccc1F [Compound 12],19200 nM
